# Measurements from patent US20220378739A1, “NATURAL KILLER CELL IMMUNOTHERAPY FOR THE TREATMENT OF GLIOBLASTOMA AND OTHER CANCERS” (BOARD OF REGENTS, THE UNIVERSITY OF TEXAS SYSTEM, priority 2019, published 2022).
# “Also recorded” adds a separate entry of the source.
# Experiments:
# [1] = test system: TGF-β1 Smad⅔ signaling pathway in NK cells; test: Phospho-Smad⅔ assay in NK cells co-cultured with GSCs; format: cell-based, human; settings: for p-Smad⅔ expression (MFI) in NK cells co-cultured with GSCs: healthy control NK cells + GSCs, inhibitor 10 μM
# Protocol: (§1) GSCs and purified NK cells were co-cultured for 48 hours in the presence of anti-TGFβ 123 (5 μg/ml) (R&D), HLA-ABC blocking antibody (clone W 6/32, Biolegend), CD44 blocking antibody (clone IM7, Biolegend), ILT-2 (CD85J) blocking antibody (clone HP-F1, ThermoFisher), CD155 blocking antibody (clone D171, GenTex), CD112 blocking antibody (clone TX31, Biolegend), 10 μM LY2109761, 10 μM galunisertib (LY2157299), 10 μM Cilengitide (Cayman Chemical) or 1 μM MMP-2/MMP-9 inhibitor I (Millipore). Cytotoxicity assays were then performed as described above.
# NK cells were stained with Live/dead-aqua and CD56 ECD (Beckman Coulter) for 20 min in the dark at RT, washed with PBS fixed for 10 min in the dark. After one wash, the cells were permeabilized (Beckman Coulter kit) and stained with p-(5465/5467)-Smad2/p-(5423/5425)/Smad3-Alexa 647 mAb Phosflow antibody (BD Biosciences) for 30 minutes at room temperature. Cells incubated with 10 ng/ml recombinant TGF-β for 45 minutes in 37° C. were used as positive control.
# GSC targets = test: NK cell functional assay (51Cr release; CD107a, IFN-γ, TNF-α) against GSC targets after co-culture with GSCs; format: cell-based, human; settings: 48 hours co-culture with GSCs 1:1; inhibitor 10 μM
# Protocol: (§2) NK cells were co-cultured for 5 hours with K562 or GSCs target cells at an optimized effector:target ratio of 5:1 together with CD107a PE-CF594 (BD Biosciences), monensin (BD GolgiStopTM) and BFA (Brefeldin A, Sigma Aldrich). NK cells were incubated without targets as the negative control and stimulated with PMA (50 ng/mL) and ionomycin ([…], Sigma Aldrich) as positive control. Cells were collected, washed and stained with surface antibodies (mentioned above), fixed/permeabilized (BD Biosciences) and stained with IFN-7 v450 and TNF-α Alexa700 (BD Biosciences) antibodies.
# (§3) NK cell cytotoxicity was assessed using chromium (siCr) release assay. Briefly, K562 or GSCs target cells were labeled with siCr (PerkinElmer Life Sciences, Boston, Mass.) at 50 μCi/5×10^5 cells for 2 hours. ^51Cr-labeled K562/GSC targets (5×105) were incubated for 4 h with serially diluted magnetically isolated NK cells in triplicate. Supernatants were then harvested and analysed for ^51Cr content.
# For studies of NK cell suppression by GSCs and human astrocytes, magnetically selected healthy NK cells were cultured in Serum-free Stem Cell Growth Medium (SCGM; CellGro/CellGenix) supplemented with 5% glutamine, 5 μM HEPES (both from GIBCO/Invitrogen), and 10% FCS (Biosera) in 96-well flat-bottomed plates (Nunc) at 100,000/100D11. […]
# K562 targets = format: cell-based, human; settings: 48 hours
# Protocol: as §2, §3
# For studies of NK cell suppression by GSCs and human astrocytes, magnetically selected healthy NK cells were cultured in Serum-free Stem Cell Growth Medium (SCGM; CellGro/CellGenix) supplemented with 5% glutamine, 5 μM HEPES (both from GIBCO/Invitrogen), and 10% FCS (Biosera) in 96-well flat-bottomed plates (Nunc) at 100,000/100D11. NK cells were co-cultured either alone (positive control) or with GSCs or astrocytes at a 1:1 ratio for 48 hours at 37° C. before performing functional assays to assess NK cells cytotoxicity.
# as §1
# soluble TGF-β1 = test: TGF-β ELISA of NK cell/GSC co-culture supernatant; format: cell-based, human; settings: NK cells + GSCs, cilengitide 10 μM, 48 hours
# Protocol: NK cells and GSCs were either co-cultured or cultured alone for 48 hours in serum free SCGM growth medium. After 48 hours, supernatants were collected and secretion of TGF R and MMP2/3/9 was assessed in the supernatant by TGFβ1 ELISA kit (R&D systems) or MMP2/3/9 luminex kit (eBiosciences) as per the manufacturer's protocol.
# [2] = test system: NKG2D, CD9, CD103 on TiNKs; test: Flow cytometry of TiNKs extracted from mouse brain tumor; format: in vivo, mouse (NSG)
# Source text: FIG. 20. […] Heat map representation of the surface markers NKG2D, CD9, CD103, PD-1 and CD69. Once the mice were sacrificed, the brain tissue was processed and TiNKs were extracted from the GBM tumor. The cells we then stained for the indicated surface markers and analyzed using flow cytometry. The expression is presented as percentage of the cells expressing each marker within the total NK cell population.
# Brain tissue from the animals was collected and NK cells were isolated using a percoll (GE Healthcare) gradient fallowing protocol described by Pino et al^57. Briefly, brain tissue was dissociated using a 70 μm cell strainer (Life Science, Durham, N.C.). Cell suspension was re suspended in a 30% isotonic percoll solution and layer on top of a 70% isotonic percoll solution. Cells were centrifuged at 500 G for 30 minutes and 18 °C with no brake. 2-3 ml of the 70%-30% interface was collected in a clean tube and washed with PBS 1X. After this procedure, cells were ready for immunostaining with mouse CD45, human CD45, CD56, CD3, CD103, CD9, CD69, PD-1 and NKG2D all from Biolegend.
# patient-derived GSCs = test: Xenogeneic (PDX) NSG mouse model of GBM; format: in vivo
# Protocol: To test this prediction, a PDX mouse model of patient-derived GSC was used, in which, ffLuc+ patient-derived GSCs (0.5×10^6) were stereotactically implanted on day 0 through a guide-screw into the right forebrain of NOD/SCID/IL2Rγc null mice (n=4-5 per group). After 7 days, the mice were treated intratumorally with 2.0×10^6 human NK cells every 7 days for 11 weeks (FIG. 5A) with either galunisertib to block the TGF-β signaling or cilengitide to block the integrin pathway. Galunisertib was administered five times a week by oral gavage and cilengitide three times a week by intraperitoneal injection. Animals implanted with tumor that were either untreated or received NK cells alone, galunisertib alone or cilengitide alone served as controls.
# To assess the anti-tumor effect of NK cells against GSCs in vivo, a NOD/SCID IL-2R7null (NSG) human xenograft model (Jackson Laboratories, Bar Harbor, Me.) was used. Intracranial implantation of GSCs into male mice was performed as previously described^55. A total of 60 mice were used. 0.5×10^5 GSCs were implanted intracranially into the right frontal lobe of 5 week old NSG mice using a guide-screw system implanted within the skull. To increase uniformity of xenograft uptake and growth, cells were injected into 10 animals simultaneously using a multiport Microinfusion Syringe Pump (Harvard Apparatus, Holliston, Mass.). Animals were anesthetized with xylazine/ketamine during the procedure. For in vivo bioluminescent imaging, GSCs were engineered to express luciferase by lentivirus transduction. Kinetics of tumor growth was monitored using weekly bioluminescence imaging (BLI; Xenogen-IVIS 200 Imaging system; Caliper, Waltham, Mass.). Signal quantitation in photons/second (p/s) was performed by determining the photon flux rate within standardized regions of interest (ROI) using Living Image software (Caliper). […] expanded donor peripheral blood NK cells^56 were injected intracranially via the guide-screw at day 7 post tumor implantation, and then every 7 days for 11 weeks. Mice were treated with either cilengitide or galunisertib (both from MCE Med Chem Express, Monmouth Junction, NJ) in the presence or absence of intracranial NK cell injection. Cilengitide was administered intraperitoneally 3 times a week starting at day 1 (250 μg/100 μl PBS) while galunisertib was administered orally (75 mg/kg) by gavage 5 days a week starting at day 1 (see FIG. 5A). […]
# Brain tissue specimens from untreated control mice, mice treated with either NK cells alone, cilengitide alone, galunisertib alone or with combination therapy of NK+ cilengitide or NK+ galunisertib were collected. […] Sections lacking tumor were also evaluated for evidence of meningoencephalitis using a Leica DM 2500 light microscope by a board-certified veterinary pathologist. […]
# [3] = test system: TiNKs / HC-NK cells rendered dysfunctional by GSCs; test: Reversal of established NK cell dysfunction (TiNKs ex vivo; NK cell recovery assays); format: cell-based, human
# Protocol: FIGS. 11A-11G. […] (FIG. 11A) NK cells were incubated with or without galunisertinib (10 μM) or LY2109761 (10 μM) for 48 hours. Representative zebra plots show their CD107a, IFN-γ, and TNF-α response to K562 targets. NK cells were gated on CD3-CD56+ lymphocytes. Inset numbers are the percentages of CD107a-, IFN-γ- or TNF-α-positive NK cells within the gated NK cell population. (FIGS. 11B-11C) NK cells were cultured either alone or with GSCs in a 1:1 ratio with or without LY2109761 or galunisertib for 48 hrs. Representative zebra plots and summary box plots show their CD107, IFN-γ, and TNF-α expression response to K562 (FIG. 11B) or GSC (FIG. 11C) targets. Effector:target ratio is 5:1. NK cells were defined as CD3-CD56+ lymphocytes. Inset numbers are the percentages of CD107a-, IFN-γ- or TNF-α-positive NK cells (n=7, n=4 respectively). (FIG. 11D) TiNK cells were cultured for 24 hours in media with 5 ng/ml IL-15 with or without galunisertib. Representative zebra plots and bar graph summary show their CD107, IFN-γ, and TNF-α response to K562 targets. Effector:target ratio is 5:1. NK cells were gated on CD3-CD56+ lymphocytes. Inset numbers are the percentages of CD107a-, IFN-γ- or TNF-α-positive NK cells within the indicated regions. (n=3). (FIG. 11E) TiNK cells and paired PB-NK cells from GBM patients were cultured in the presence or absence of galunisertib for 12 hours. The bar graphs summarize the mean fluorescence intensity (MFI) for their p-Smad⅔ expression. Paired t test was performed to determine statistical significance (n=3). (FIG. 11F) Specific lysis (^51Cr release assay) of K562 targets by NK cells. After 48 hours of culture alone (blue lines) or with GSCs, healthy donor NK cells were either left with GSCs (red lines), or purified and re-suspended in media for another 48 hours (black lines). NK cells were then collected and used for ^51Cr release assay (n=4). (FIG. 11G) Specific lysis (^51Cr release assay) of K562 targets by NK cells. After 48 hours of culture alone (blue lines) or with GSCs, healthy donor NK cells were either left with GSCs ([…]) or purified and cultured in SCGM media plus 5 ng/ml IL-15 with (black lines) or without galunisertib (10 μM) (gray lines) for […]. At the end of the culture period, their cytotoxicity was tested against k562 targets by ^51Cr release assay (n=4).
# NK cells were cultured either with GSCs in a 1:1 ratio or alone for 48 hours. After 48 hours of co-incubation, NK cells were then either purified again by bead selection and resuspended in SCGM media or remained in culture with GSCs for an additional 48 hours and then used for ^51Cr release assay. In a second assay, after reselection, NK cells were cultured for another 5 days in SCGM in the presence of 5 ng/ml IL-15 with or without 10 μM galunisertib before use for ^51Cr release assay.
compound,measurement,setting,value
c1ccc(-c2nn3c(c2-c2ccnc4cc(OCCN5CCOCC5)ccc24)CCC3)nc1 [LY2109761],p-Smad⅔ expression (MFI) in NK cells co-cultured with GSCs,[1],prevented GSCs from activating the TGF-β1 Smad⅔ signaling pathway in NK cells
same,GSC-induced NK cell dysfunction: natural cytotoxicity against GSC targets,GSC targets,preserving the natural cytotoxicity of NK cells against K562 or GSC targets
same,"NK cell function (CD107a, IFN-γ, TNF-α response to K562), NK cells without GSCs","K562 targets; NK cells alone, inhibitor 10 μM",neither inhibitor affected NK cell function
O=C(O)[C@@H](Cc1ccccc1)NS(=O)(=O)c1ccc(-c2ccccc2)cc1 [MMP 2/9 inhibitor],p-Smad⅔ levels in NK cells with MMP 2/9 inhibitor,"[1]; NK cells with or without GSCs, inhibitor 1 μM",decreased p-Smad⅔ levels
same,NK cell function in cultures lacking GSCs,K562 targets; MMP 2/9 inhibitor 1 μM,did not affect NK cell function in cultures lacking GSCs
CC(C)[C@H]1C(=O)N[C@@H](CCCN=C(N)N)C(=O)NCC(=O)N[C@@H](CC(=O)O)C(=O)N[C@H](Cc2ccccc2)C(=O)N1C [cilengitide],p-Smad⅔ expression (MFI) in NK cells co-cultured with GSCs,[1],significantly decreased; also recorded: diminished Smad⅔ phosphorylation
same,soluble TGF-β1 levels in supernatant,soluble TGF-β1,significantly decreased levels of soluble TGF-β1; also recorded: decreased TGF-β production
same,surface marker expression on TiNKs harvested after sacrifice,[2],protects NK cells from TGF-β induced inhibitory phenotype in vivo
same,"tumor bioluminescence (BLI), first experiment","patient-derived GSCs; NK cells intratumorally every 7 days for 11 weeks, galunisertib oral 5 times a week, cilengitide i.p. three times a week",tumor bioluminescence rapidly increased
same,NK-mediated GBM killing / efficacy in PDX model of GBM (summary statements),"patient-derived GSCs; mouse, in vivo",enhances NK-mediated GBM killing in vivo
IL-15: activating cytokine,reversal of GSC-induced dysfunction of HC-NK cells,"[3]; NK cells purified after 48 hours with GSCs, then IL-15 5 ng/ml with or without galunisertib 10 μM",did not reverse the dysfunction of HC-NK cells induced by GSCs
same,"restoration of TiNK function (specific lysis of K562; CD107, IFN-γ, TNF-α)","[3]; TiNKs cultured 24 hours, galunisertib 10 μM or IL-15 5 ng/ml",failed to inactivate the TGF-β1 Smad⅔ signaling pathway and restore NK cell dysfunction
same,TGF-β1 Smad⅔ signaling in TiNKs,"[3]; TiNKs from GBM patients cultured ex vivo, galunisertib 12 hours or IL-15",failed to inactivate the TGF-β1 Smad⅔ signaling pathway
